Assay results: patent EP4678638A1, “NEW E3 UBIQUITIN LIGASE LIGAND, PROTEIN DEGRADATION AGENT AND USE THEREOF” (priority 2023, dated 2024)
Read-outs that look alike come from different tables or passages of the source.

Experiments:
[1] = tested on: H1975-1µM Osimertinib cells; experiment: CCK-8 proliferation, osimertinib-resistant H1975 cells; assay type: cell-based, Human; conditions: Homo sapiens, NCI-H1975; CCK-8; osimertinib-resistant H1975 cells obtained by treating H1975 cells with 1 µM Osimertinib for 3 months; read-out: Inhibitory activity (IC50) on tumor cell proliferation, H1975-1µm Osimertinib
Procedure: (§1) The tumor cells used herein were cultured in a cell culture medium listed in table A1 at 37°C in an incubator with 5% CO2. Prior to experimentation, all cell lines used were correctly identified by STR profiling, and tested negative for mycoplasma contamination using a mycoplasma detection kit through routine screenings. Table A1. Tumor cells and cell culture medium used in the present disclosure
(§2) IC50 values of the compounds of the present disclosure (including the compounds in Table 1, and compounds of examples) were measured using the Meilun Cell Counting Kit-8 kit from Dalian Meilun Biotech Co., Ltd. Assay details are as follows: tumor cells were seeded in a 96-well plate at a density listed in Table A2. After 24h, 100 µL of the inoculated cells were treated with 0.5µL of the compounds of the present disclosure (including the compounds in Tables 1 and 2, and compounds of examples) at 10 different successively decreasing concentrations (starting at the highest concentration of 10µM; 5-fold serial dilutions). After the cells were treated with the compounds of the present disclosure for a period of time, the cell viability detection reagent was added to the culture medium for cell viability assessment according to the instructions provided with the CCK-8 kit. […] The growth inhibition of the compounds of the present disclosure on cells was plotted by Prism Graphpad software, and the IC50 values of the compounds of the present disclosure were calculated therefrom. […] Seeding protocol and treatment time for tumor cells

EGFR = experiment: Western blot degradation of EGFR (H1975 Cell); assay type: cell-based, Human; conditions: Table D2
Outline: (§3)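 Degradation is assessed by immunoblotting lysates of treated cells. Target bands are quantified by grayscale and normalised to an internal control, so degradation rate equals 100% minus % remaining.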

H1975 = experiment: CCK-8 proliferation, NCI-H1975 (H1975); assay type: cell-based, Human; conditions: Homo sapiens, NCI-H1975; CCK-8; 96 hours; read-out: Inhibitory activity (IC50) on tumor cell proliferation, H1975
Outline: (§4)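 CCK-8 viability readout; IC50 from growth-inhibition curve fitting. Cells plated, dosed 24h later with a 10-point series, top 10µM, 5-fold steps. Culture at 37°C, 5% CO2.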

PC-9 = experiment: CCK-8 proliferation, PC-9; assay type: cell-based, Human; conditions: Homo sapiens, PC-9; CCK-8; 96 hours; read-out: Inhibitory activity (IC50) on tumor cell proliferation, PC-9
Outline: as §4

SW620 = experiment: CCK-8 proliferation, SW620; assay type: cell-based; conditions: Homo sapiens, SW-620; CCK-8; 96 hours; read-out: Inhibitory activity (IC50) on tumor cell proliferation, SW620
Procedure: as §1, §2

MGC-803 = experiment: CCK-8 proliferation, MGC-803 (heads: MGC80-3, MGC803); assay type: cell-based, Human; conditions: Homo sapiens, MGC-803
Procedure: as §1, §2

IRAK4 = target: T1, IRAK4 (Homo sapiens, UniProt Q9NWZ3); experiment: Western blot degradation of IRAK4 (hPBMC); assay type: cell-based; conditions: Table D1
T1 construct: evaluate the effects of the compounds of the present disclosure on the expression of target proteins in cells; endogenous in cells; host or cells: hPBMC
T1 sequence (Q9NWZ3 1-460): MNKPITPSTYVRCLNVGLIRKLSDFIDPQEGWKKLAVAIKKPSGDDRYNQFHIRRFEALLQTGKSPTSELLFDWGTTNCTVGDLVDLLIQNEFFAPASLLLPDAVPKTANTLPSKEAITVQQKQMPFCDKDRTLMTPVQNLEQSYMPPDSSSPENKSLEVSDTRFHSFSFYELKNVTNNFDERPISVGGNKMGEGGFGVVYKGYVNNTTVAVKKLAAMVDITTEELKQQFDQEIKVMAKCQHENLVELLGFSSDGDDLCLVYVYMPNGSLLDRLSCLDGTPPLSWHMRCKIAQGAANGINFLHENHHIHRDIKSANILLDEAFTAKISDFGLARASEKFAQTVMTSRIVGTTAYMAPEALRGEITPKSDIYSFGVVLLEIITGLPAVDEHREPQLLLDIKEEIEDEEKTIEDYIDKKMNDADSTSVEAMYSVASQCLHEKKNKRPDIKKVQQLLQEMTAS
Outline: as §3

MM.1S = experiment: CCK-8 proliferation, MM.1S; assay type: cell-based; conditions: Homo sapiens, MM1.S; Table B10, compounds designed based on the IRAK4 inhibitors; MM.1S cells; read-out: Inhibitory activity (IC50, nM) on tumor cell proliferation, MM.1S
Outline: as §4

SR = experiment: CCK-8 proliferation, SR; assay type: cell-based, Human; conditions: Homo sapiens; Table B10, compounds designed based on the IRAK4 inhibitors; SR cells; read-out: Inhibitory activity (IC50, nM) on tumor cell proliferation, SR
Outline: as §4

Jurkat = experiment: CCK-8 proliferation, Jurkat; assay type: cell-based, Human; conditions: Homo sapiens; Table B10, compounds designed based on the IRAK4 inhibitors; Jurkat cells; read-out: Inhibitory activity (IC50, nM) on tumor cell proliferation, Jurkat
Outline: as §4

IC50 [1]	IC50 (H1975)	Structure (SMILES)	Degradation of substrate protein EGFR (substrate protein remaining %) (EGFR)	further results
50 to 100 nM	10 to 50 nM	O=C1CCC(Nc2cccc(CN3CCN(C4CCN(c5ccc(-c6cc(F)c7c(c6)C(=O)N(C(C(=O)Nc6nccs6)c6ncn8c6CCC8)C7)cc5)CC4)CC3)c2)C(=O)N1 (centres unmarked) [GT-06247, 2-(6,7-dihydro-5H-pyrrolo[1,2-c]imidazol-1-yl)-2-(6-(4-(4-(4-(3-((2,6-dioxopiperidin-3-yl)amino)benzyl)piperazin-1-yl)piperidin-1-yl)phenyl)-4-fluoro-1-oxoisoindolin-2-yl)-N-(thiazol-2-yl)acetamide]	A (A is defined as 0% ≤ substrate protein remaining % ≤ 80%)	–
500 to 1000 nM	–	CC(C)n1nc(N2CCC(N3CCN(Cc4cccc(N5CCC(=O)NC5=O)c4)CC3)CC2)c2cnc(Nc3ccnc(-c4cnn(S(=O)(=O)C5CC5)c4)n3)cc21 [GT-06080, 1-(3-((4-(1-(6-((2-(1-(cyclopropylsulfonyl)-1H-pyrazol-4-yl)pyrimidin-4-yl)amino)-1-isopropyl-1H-pyrazolo[4,3-c]pyridin-3-yl)piperidin-4-yl)piperazin-1-yl)methyl)phenyl)dihydropyr imidine-2,4(1H,3H)-dione]	–	IC50 (PC-9): 500 to 1000 nM
100 to 500 nM	1 to 10 nM	O=C1CCN(c2ccc(CN3C[C@H]4C[C@@H]3CN4c3ccc(-c4cc(F)c5c(c4)C(=O)N(C(C(=O)Nc4nccs4)c4ncn6c4CCC6)C5)cc3)nc2)C(=O)N1 (stereo partly drawn) [GT-06190, 2-(6,7-dihydro-5H-pyrrolo[1,2-c]imidazol-1-yl)-2-(6-(4-((1R,4R)-5-((5-(2,4-dioxotetrahydropyrimidin-1(2H)-yl)pyridin-2-yl)methyl)-2,5-diazabicyclo[2.2.1]heptan-2-yl)phenyl)-4-fluoro-1-oxoisoindolin-2-yl)-N-(thiazol-2-yl)acetamide]	A (A is defined as 0% ≤ substrate protein remaining % ≤ 80%)	–
500 to 1000 nM	1 to 10 nM	O=C1CCN(c2ccc(CN3CCN(C4CCN(c5ccc(-c6cc(F)c7c(c6)C(=O)N(C(C(=O)Nc6nccs6)c6ncn8c6CCC8)C7)cc5)CC4(F)F)CC3)cn2)C(=O)N1 (centres unmarked) [GT-06320, 2-(6,7-dihydro-5H-pyrrolo[1,2-c]imidazol-1-yl)-2-(6-(4-(4-(4-((6-(2,4-dioxotetrahydropyrimidin-1(2H)-yl)pyridin-3-yl)methyl)piperazin-1-yl)-3,3-difluoropiperidin-1-yl)phenyl)-4-fluoro-1-oxoisoindolin-2-yl)-N-(thiazol-2-yl)acetamide]	A (A is defined as 0% ≤ substrate protein remaining % ≤ 80%)	–
< 1 nM	1 to 10 nM	O=C1CCC(Nc2cccc(CN3CCN(c4ccc(-c5cc(F)c6c(c5)C(=O)N(C(C(=O)Nc5nccs5)c5ncn7c5CCC7)C6)cc4)CC3)c2)C(=O)N1 (centres unmarked) [GT-06188, 2-(6,7-dihydro-5H-pyrrolo[1,2-c]imidazol-1-yl)-2-(6-(4-(4-(3-((2,6-dioxopiperidin-3-yl)amino)benzyl)piperazin-1-yl)phenyl)-4-fluoro-1-oxoisoindolin-2-yl)-N-(thiazol-2-yl)acetamide]	–	–
10 to 50 nM	100 to 500 nM	CC(C)n1nc(N2CCC(N3CCN(Cc4ccc(N5CCC(=O)NC5=O)nc4)CC3)CC2)c2cnc(Nc3ccnc(-c4cnn(S(=O)(=O)C5CC5)c4)n3)cc21 [GT-06082, 1-(5-((4-(1-(6-((2-(1-(cyclopropylsulfonyl)-1H-pyrazol-4-yl)pyrimidin-4-yl)amino)-1-isopropyl-1H-pyrazolo[4,3-c]pyridin-3-yl)piperidin-4-yl)piperazin-1-yl)methyl)pyridin-2-yl)dihydropyrimidine-2,4(1H,3H)-dione]	–	IC50 (PC-9): 100 to 500 nM

Continued, molecule first:

Structure (SMILES)	IC50 [1]	IC50 (H1975)	Degradation of substrate protein EGFR (substrate protein remaining %) (EGFR)	further results
COC1CCN(c2nccc(Nc3cc4c(cn3)c(N3CCN(Cc5ccc(N6CCC(=O)NC6=O)cc5)CC3)nn4C(C)C)n2)CC1 [GT-06037, 1-(4-((4-(1-isopropyl-6-((2-(4-methoxypiperidin-1-yl)pyrimidin-4-yl)amino)-1H-pyrazolo[4,3-c]pyridin-3-yl)piperazin-1-yl)methyl)phenyl)dihydropyr imidine-2,4(1H,3H)-dione]	1 to 10 nM	–	–	–
CC(C)n1nc(N2CCC(N3CCN(Cc4ccc(C5CCC(=O)NC5=O)cc4)CC3)CC2)c2cnc(Nc3ccnc(-c4cnn(S(=O)(=O)C5CC5)c4)n3)cc21 (centres unmarked) [GT-06078, 3-(4-((4-(1-(6-((2-(1-(cyclopropylsulfonyl)-1H-pyrazol-4-yl)pyrimidin-4-yl)amino)-1-isopropyl-1H-pyrazolo[4,3-c]pyridin-3-yl)piperidin-4-yl)piperazin-1-yl)methyl)phenyl)piperidine-2,6-dione]	100 to 500 nM	–	A (A is defined as 0% ≤ substrate protein remaining % ≤ 80%)	–
CCC(=C(c1ccc(O)cc1)c1ccc(N2CCN(Cc3ccc(C4CCC(=O)NC4=O)c(F)c3)CC2)cc1)c1ccc(O)cc1 (centres unmarked) [GT-04150, 3-(4-((4-(4-(1,2-bis(4-hydroxyphenyl)but-1-en-1-yl)phenyl)piperazin-1-yl)methyl)-2-fluorophenyl)piperidine-2,6-dione]	–	–	–	IC50 (SW620): < 1 nM; IC50 (MGC-803; CCK-8, 72 hours, read-out: Inhibitory activity (IC50) on tumor cell proliferation, MGC80-3): > 10000 nM
CN(Cc1cccc(NC2CCC(=O)NC2=O)c1)C1CCN(c2ccc(-c3cc(F)c4c(c3)C(=O)N(C(C(=O)Nc3nccs3)c3ncn5c3CCC5)C4)cc2)CC1 (centres unmarked) [GT-05284, 2-(6,7-dihydro-5H-pyrrolo[1,2-c]imidazol-1-yl)-2-(6-(4-(4-((3-((2,6-dioxopiperidin-3-yl)amino)benzyl)(methyl)amino)piperidin-1-yl)phenyl)-4-fluoro-1-oxoisoindolin-2-yl)-N-(thiazol-2-yl)acetamide]	500 to 1000 nM	1 to 10 nM	A (A is defined as 0% ≤ substrate protein remaining % ≤ 80%)	–
O=C1CCN(c2cccc(CN3CCC(N4CCN(c5ccc6c(c5)nc(NC(=O)c5cccc(C(F)(F)F)c5)n6[C@H]5CC[C@@H](CO)CC5)CC4)CC3)c2)C(=O)N1 [GT-05022, N-(5-(4-(1-(3-(2,4-dioxotetrahydropyrimidin-1(2H)-yl)benzyl)piperidin-4-yl)piperazin-1-yl)-1-((1s,4s)-4-(hydroxymethyl)cyclohexyl) -1H-benzo[d]imidazol-2-yl)-3-(trifluoromethyl)benzamide]	–	–	–	Degradation of substrate protein IRAK4 (substrate protein remaining %) (IRAK4): A (A is defined as 0% ≤ substrate protein remaining % ≤ 80%); IC50 (MGC-803; Table B10, compounds designed based on the IRAK4 inhibitors, MGC803 cells, read-out: Inhibitory activity (IC50, nM) on tumor cell proliferation, MGC803): 500 to 1000 nM; IC50 (MM.1S): 500 to 1000 nM; IC50 (SR): 500 to 1000 nM; IC50 (Jurkat): 500 to 1000 nM
